25 compounds from US12344603B2 (Genentech, Inc., priority 2020, dated 2025) can be followed below.

Where a name gives a salt, the structure may show the parent alone.

This assay concerns the target IRE1α (Homo sapiens (Human), UniProt O75460, D688N). Description: IRE1α TR-FRET competition binding assay (IRE1α HTRF). To be noted: TR-FRET competition binding to kinase domain of IRE1α. In short, it runs like this: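 Competition of compounds against an Alexa fluor 647 ATP-site probe (2 nM final) for the His-tagged kinase domain (0.25 nM final), detected via 2 nM Eu anti-His antibody by TR-FRET, 665 and 615 nm emission. Protein–antibody premix 1 h, 4° C; reaction 1 h, room temperature, pH 7.5 HEPES buffer.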
A general note: TR-FRET usually uses a lanthanide donor and a delayed reading to cut background.

IRE1α, sequence (O75460 547-977 D688N): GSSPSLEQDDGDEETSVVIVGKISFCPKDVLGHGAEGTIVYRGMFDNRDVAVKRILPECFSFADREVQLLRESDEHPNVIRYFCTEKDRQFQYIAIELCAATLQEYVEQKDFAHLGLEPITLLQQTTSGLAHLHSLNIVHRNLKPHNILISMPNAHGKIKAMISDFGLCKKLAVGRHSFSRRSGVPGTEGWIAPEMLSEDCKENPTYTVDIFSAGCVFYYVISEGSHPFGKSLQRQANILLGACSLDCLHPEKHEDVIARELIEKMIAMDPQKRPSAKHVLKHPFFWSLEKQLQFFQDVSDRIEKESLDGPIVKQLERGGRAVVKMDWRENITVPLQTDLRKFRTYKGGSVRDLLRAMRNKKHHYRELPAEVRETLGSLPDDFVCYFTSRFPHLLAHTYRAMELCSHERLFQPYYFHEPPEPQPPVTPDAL

The IC50 is the point on the concentration scale where inhibition reaches its midpoint. The compound `CC(C)n1c(=O)c(-c2ccc(NS(=O)(=O)CC3CC(F)(F)C3)c(F)c2)cc2cnc(N[C@H]3CC[C@H](N(C)CCF)CC3)nc21` [Compound 156, 1-(3,3-Difluorocyclobutyl)-N-(2-fluoro-4-(2-(((1r,4r)-4-((2-fluoroethyl)(methyl)amino)cyclohexyl)amino)-8-isopropyl-7-oxo-7,8-dihydropyrido[2,3-d]pyrimidin-6-yl)phenyl)methanesulfonamide] came in with an IC50 of 0.18 nM.

Take `CC(C)n1c(=O)c(-c2ccc(NS(=O)(=O)CC3CCC3(F)F)c(F)c2)nc2cnc(N[C@H]3CC[C@H](N(C)C)CC3)nc21` (mixture of isomers) [Example 263, 1-(2,2-Difluorocyclobutyl)-N-[4-[2-[[4-(dimethylamino)cyclohexyl]amino]-8-isopropyl-7-oxo-pteridin-6-yl]-2-fluoro-phenyl]methanesulfonamide]: the concentration for half-maximal inhibition (IC50) turned out to be 0.1 nM.

`CCn1c(=O)c(-c2cc(F)c(NS(=O)(=O)Cc3ccccc3)c(F)c2F)cc2cnc(N[C@@H]3CNC[C@@H](F)C3)nc21` [Compound 15, N-(4-(8-Ethyl-2-(((3S,5S)-5-fluoropiperidin-3-yl)amino)-7-oxo-7,8-dihydropyrido[2,3-d]pyrimidin-6-yl)-2,3,6-trifluorophenyl)-1-phenylmethanesulfonamide] registered an IC50 of 0.21 nM.

In turn, `CC(C)n1c(=O)c(-c2ccc(NS(=O)(=O)CC3CC(F)(F)C3)c(F)c2)nc2cnc(N[C@H]3CC[C@H](N(C)C)CC3)nc21` [Example 279, 1-(3,3-Difluorocyclobutyl)-N-[4-[2-[[4-(dimethylamino)cyclohexyl]amino]-8-isopropyl-7-oxo-pteridin-6-yl]-2-fluoro-phenyl]methanesulfonamide] yielded a half-inhibitory concentration (IC50) of 0.3 nM.

`Cc1nc(NS(=O)(=O)c2ccccc2C#N)ccc1-c1nc2cnc(N[C@H]3CC[C@H](N(C)CCF)CC3)nc2n(C(C)C)c1=O` [Compound 194, 2-Cyano-N-(5-(2-(((1r,4r)-4-((2-fluoroethyl)(methyl)amino)cyclohexyl)amino)-8-isopropyl-7-oxo-7,8-dihydropteridin-6-yl)-6-methylpyridin-2-yl)benzenesulfonamide] returned an IC50 of 0.31 nM. The IC50 values of the last two compounds are within 1.5-fold of each other.

For `CC(C)n1c(=O)c(-c2ccc(NS(=O)(=O)C3C4CCCCC43)c(F)c2)nc2cnc(N[C@H]3CC[C@H](N(C)C)CC3)nc21` (stereo partly shown) [Example 275, N-[4-[2-[[4-(Dimethylamino)cyclohexyl]amino]-8-isopropyl-7-oxo-pteridin-6-yl]-2-fluoro-phenyl]norcarane-7-sulfonamide], the IC50 worked out at 0.4 nM. The IC50 values of the last two compounds are within 1.5-fold of each other.

For the compound `CCn1c(=O)c(-c2ccc(NS(=O)(=O)Cc3ccccc3)c(F)c2F)cc2cnc(N[C@@H]3CNC[C@@H](F)C3)nc21` [Compound 12, N-(4-(8-Ethyl-2-(((3S,5S)-5-fluoropiperidin-3-yl)amino)-7-oxo-7,8-dihydropyrido[2,3-d]pyrimidin-6-yl)-2,3-difluorophenyl)-1-phenylmethanesulfonamide], the concentration for half-maximal inhibition (IC50) came out at 0.57 nM.

`CC(C)n1c(=O)c(-c2ccc(F)c(NS(=O)(=O)Cc3ccccc3)c2)cc2cnc(N[C@H]3CCCNC3)nc21` [Compound 17, (S)—N-(2-Fluoro-5-(8-isopropyl-7-oxo-2-(piperidin-3-ylamino)-7,8-dihydropyrido[2,3-d]pyrimidin-6-yl)phenyl)-1-phenylmethanesulfonamide hydrochloride] registered an IC50 of 11 nM.

`CC(C)n1c(=O)c(-c2ccc(NS(=O)(=O)c3ccccc3C#N)c(F)c2)nc2cnc(N[C@H]3CC[C@H](N(C)C)CC3)nc21` [Compound 190, 2-Cyano-N-(4-(2-(((1r,4r)-4-(dimethylamino)cyclohexyl)amino)-8-isopropyl-7-oxo-7,8-dihydropteridin-6-yl)-2-fluorophenyl)benzenesulfonamide] displayed a half-maximal inhibitory concentration (IC50) of 0.18 nM. Compared with the last compound, the IC50 is about 61-fold lower.

Regarding `CC(C)n1c(=O)c(-c2cc(F)c(NS(=O)(=O)Cc3ccccc3C#N)c(F)c2F)cc2cnc(N[C@@H]3CNC[C@@H](F)C3)nc21` [Compound 32, 1-(2-Cyanophenyl)-N-(2,3,6-trifluoro-4-(2-(((3S,5S)-5-fluoropiperidin-3-yl)amino)-8-isopropyl-7-oxo-7,8-dihydropyrido[2,3-d]pyrimidin-6-yl)phenyl)methanesulfonamide], the concentration for half-maximal inhibition (IC50) turned out to be 0.34 nM.

`CCC(C)n1c(=O)c(-c2ccc(NS(=O)(=O)Cc3ccccc3F)c(F)c2)cc2cnc(N[C@@H]3CNC[C@@H](F)C3)nc21` (single isomer, unassigned) [Compound 202A, hydrochloride] showed an IC50 of 0.26 nM.

The compound `CC(C)n1c(=O)c(-c2ccc(NS(=O)(=O)c3ccccc3OC(F)(F)F)nc2)cc2cnc(N[C@H]3CC[C@H](N(C)C)CC3)nc21` [Compound 150, N-(5-(2-(((1r,4r)-4-(Dimethylamino)cyclohexyl)amino)-8-isopropyl-7-oxo-7,8-dihydropyrido[2,3-d]pyrimidin-6-yl)pyridin-2-yl)-2-(trifluoromethoxy)benzenesulfonamide] came in with a 50% inhibitory concentration (IC50) of 0.26 nM. That is a sub-nanomolar value.

Take `O=c1c(-c2ccc(NS(=O)(=O)Cc3ccccc3)c(F)c2F)cc2cnc(N[C@@H]3CNC[C@@H](F)C3)nc2n1CC(F)(F)F` [Compound 40, N-(2,3-Difluoro-4-(2-(((3S,5S)-5-fluoropiperidin-3-yl)amino)-7-oxo-8-(2,2,2-trifluoroethyl)-7,8-dihydropyrido[2,3-d]pyrimidin-6-yl)phenyl)-1-phenylmethanesulfonamide]: the IC50 is 1.7 nM. This IC50 is about 6.5-fold higher than that of the compound before.

The compound `CC(C)n1c(=O)c(-c2ccc(NS(=O)(=O)CC3(C(C)(F)F)CC3)c(F)c2)nc2cnc(N[C@H]3CC[C@H](N(C)C)CC3)nc21` [Example 258, 1-[1-(1,1-Difluoroethyl)cyclopropyl]-N-[4-[2-[[4-(dimethylamino)cyclohexyl]amino]-8-isopropyl-7-oxo-pteridin-6-yl]-2-fluoro-phenyl]methanesulfonamide] came in with an IC50 of 0.2 nM.

For the compound `CC(C)n1c(=O)c(-c2cc(F)c(NC(=O)CC3CCC3)c(F)c2F)cc2cnc(N[C@H]3CC[C@H](N(C)C)CC3)nc21` [Compound 62, 2-Cyclobutyl-N-(4-(2-(((1r,4r)-4-(dimethylamino)cyclohexyl)amino)-8-isopropyl-7-oxo-7,8-dihydropyrido[2,3-d]pyrimidin-6-yl)-2,3,6-trifluorophenyl)acetamide], the IC50 is 2.2 nM.

As for `CC(C)n1c(=O)c(-c2cc(F)c(NS(=O)(=O)Cc3cccc(C#N)c3)c(F)c2F)cc2cnc(N[C@@H]3CNC[C@@H](F)C3)nc21` [Compound 30, 1-(3-Cyanophenyl)-N-(2,3,6-trifluoro-4-(2-(((3S,5S)-5-fluoropiperidin-3-yl)amino)-8-isopropyl-7-oxo-7,8-dihydropyrido[2,3-d]pyrimidin-6-yl)phenyl)methanesulfonamide], the concentration for half-maximal inhibition (IC50) worked out at 0.21 nM.

`CC(C)n1c(=O)c(-c2cc(NS(=O)(=O)CCC(F)(F)F)nn2C)cc2cnc(N[C@@H]3CNC[C@@H](F)C3)nc21` [Compound 85] registered an IC50 of 16 nM. Against the preceding compound, the IC50 is about 76-fold higher.

Take `CC[C@H](C)n1c(=O)c(-c2ccc(NS(=O)(=O)CCC(F)(F)F)c(F)c2)cc2cnc(N[C@H]3CC[C@H](N(C)C)CC3)nc21` (single isomer, unassigned) [Compound 203A]: the half-inhibitory concentration (IC50) was determined as 0.1 nM.

The compound `CC(C)n1c(=O)c(-c2ccc(NS(=O)(=O)CC3CC(F)(F)C3)c(F)c2)nc2cnc(N[C@H]3CC[C@H](N(C)CCF)CC3)nc21` [Compound 180, 1-(3,3-Difluorocyclobutyl)-N-(2-fluoro-4-(2-(((1r,4r)-4-((2-fluoroethyl)(methyl)amino)cyclohexyl)amino)-8-isopropyl-7-oxo-7,8-dihydropteridin-6-yl)phenyl)methanesulfonamide] yielded an IC50 of 0.29 nM.

Turning to `CC(C)n1c(=O)c(-c2ccc(NS(=O)(=O)CCC(F)(F)F)c(F)c2)cc2cnc(N[C@H]3CC[C@H](N4CCOCC4)CC3)nc21` [Compound 213, 3,3,3-Trifluoro-N-(2-fluoro-4-(8-isopropyl-2-(((1,4-trans)-4-morpholinocyclohexyl)amino)-7-oxo-7,8-dihydropyrido[2,3-d]pyrimidin-6-yl)phenyl)propane-1-sulfonamide], the 50% inhibitory concentration (IC50) worked out at 0.14 nM.

Take `Cn1c(=O)c(-c2cc(F)c(NS(=O)(=O)Cc3ccccc3)c3ccccc23)cc2cnc(N[C@H]3CCCNC3)nc21` [Compound 6, (S)—N-(2-Fluoro-4-(8-methyl-7-oxo-2-(piperidin-3-ylamino)-7,8-dihydropyrido[2,3-d]pyrimidin-6-yl)naphthalen-1-yl)-1-phenylmethanesulfonamide]: the IC50 was determined as 0.89 nM.

In turn, `CC(C)n1c(=O)c(-c2cc(F)c(NS(=O)(=O)Cc3ccccc3)c(F)c2F)cc2cnc(N[C@H]3CC[C@H](N(C)C)CC3)nc21` [Compound 24, N-(4-(2-(((1r,4r)-4-(Dimethylamino)cyclohexyl)amino)-8-isopropyl-7-oxo-7,8-dihydropyrido[2,3-d]pyrimidin-6-yl)-2,3,6-trifluorophenyl)-1-phenylmethanesulfonamide] had a half-inhibitory concentration (IC50) of 2.7 nM.

Compound `CC(C)n1c(=O)c(-c2ccc(NS(=O)(=O)c3ccccc3Cl)c(F)c2)nc2cnc(N[C@H]3CC[C@H](N(C)C)CC3)nc21` [Compound 167, 2-Chloro-N-(4-(2-(((1r,4r)-4-(dimethylamino)cyclohexyl)amino)-8-isopropyl-7-oxo-7,8-dihydropteridin-6-yl)-2-fluorophenyl)benzenesulfonamide] had a 50% inhibitory concentration (IC50) of 0.18 nM.

`CC(C)n1c(=O)c(-c2ccc(NS(=O)(=O)c3ccccc3)c(F)c2)nc2cnc(N[C@@H]3CNC[C@@H](F)C3)nc21` [Compound 74, N-[2-Fluoro-4-[2-[[(3S,5S)-5-fluoro-3-piperidyl]amino]-8-isopropyl-7-oxo-pteridin-6-yl]phenyl]benzenesulfonamide] had a half-inhibitory concentration (IC50) of 0.6 nM. This IC50 is about 3.3-fold higher than that of the compound before.

As for `CC(C)n1c(=O)c(-c2cc(F)c(NS(=O)(=O)Cc3ccc(F)cc3)c(F)c2F)cc2cnc(N[C@H]3CC[C@H](N(C)CCF)CC3)nc21` [Compound 141, 1-(4-Fluorophenyl)-N-(2,3,6-trifluoro-4-(2-(((1r,4r)-4-((2-fluoroethyl)(methyl)amino)cyclohexyl)amino)-8-isopropyl-7-oxo-7,8-dihydropyrido[2,3-d]pyrimidin-6-yl)phenyl)methanesulfonamide], the 50% inhibitory concentration (IC50) worked out at 0.18 nM.
